Results published in patent publication US7094394B2, “Methods and compositions for controlling biofilm development” (priority 1997, dated 2006).
Entries after “also recorded” stand apart in the source; their conditions may differ.

Experiments:
[1] = test system: P. aeruginosa PAO-JP1 biofilm; assay: Biofilm average cell cluster depth, OdDHL knockout; assay type: cell-based, Pseudomonas aeruginosa; details: OdDHL added back to nutrient feed of OdDHL knockout; standard error 25.2
Experimental: (§1) 1. Biofilm average cell cluster depth: This parameter is a measure of the average thickness in microns of cell clusters in a biofilm. Depth measurements are performed microscopically, by measuring the maximum distance from the substratum to the apex of a biofilm cell cluster at the bulk water interface in a steady state biofilm for a minimum of 20 cell clusters. Previous measurements have shown that with P. aeruginosa, the average cell cluster depth is 102.3 um with a standard error of the mean of 20.5 um. When the gene responsible for the production of the homoserine lactone OdDHL is knocked out, the average cell cluster depth drops to only 22.8 um with a standard error of the mean of 10.0.
(§2) Continuous culture studies. A continuous culture apparatus was developed to observe the growth and development of biofilms attached to a glass substratum. The apparatus was configured as a once through flow cell system. The influent defined culture medium was retained in a four liter glass reservoir. […]
(§3) Log phase P. aeruginosa were inoculated through a septum approximately 1 cm upstream from the flow cell while flow was maintained. […] Flow through the system was then increased to remove any bacteria attached to the inside surface of the coverslip (as determined by microscopy). […]

[2] = test system: P. aeruginosa JP1 biofilm; assay: Biofilm cell nearest neighbor analysis, OdDHL knockout; assay type: cell-based, Pseudomonas aeruginosa; details: OdDHL (10 uM) added to nutrient feed of OdDHL-defective mutant, at the substratum
Experimental: (§4) 2. Biofilm cell nearest neighbor analysis: This parameter is a measure of the average distance spacing between cells within a biofilm cell cluster or between cells at a substratum. Both measurements are influenced by the presence of the homoserine lactone OdDHL. The nearest neighbor analysis is performed by imaging 20 or more fields in a biofilm reactor and electronically determining the centroid of each cell. The relative distances from a marker cell to all other cells is computed and iterated for each cell in the population. The average nearest neighbor is then calculated. […] When OdDHL is added to the nutrient feed of the mutant defective in the production of that HSL, the average nearest neighbor increases to just over 9 um in distance.

[3] = test system: P. aeruginosa PAO-JP1 biofilm cell clusters; assay: Effect of detergent (0.2% SDS) on biofilm dispersion, lasI knockout; assay type: cell-based, Pseudomonas aeruginosa
Experimental: FIGS. 2a, 2b, 2c, and 2d are cell cluster studies which show the effect of the addition of 0.2% SDS to a biofilm cell cluster of the lasI knockout strain P. aerguginosa PAO-JP1. The strain was grown in EPRI medium for 10 days in continuous culture reactor under flowing conditions (a). SDS was added to the culture reactor and flow was turned off for 30 min (b,c). Following incubation in the presence of SDS, flow was reinitiated (d);
(§5) 3. […] It has been shown previously (Davies, Doctoral Thesis, Montana State University, 1996) that matrix polymer, specifically alginate, prevents the dissolution of P.aeruginosa cell clusters treated with 0.2% SDS. However, when cell clusters are formed in the absence of alginate they are completely disrupted in under 30 minutes (FIGS. 2a, 2b, 2c and 2d). By microscopic examination of cell cluster thickness before and after treatment with SDS or by capturing effluent samples following similar treatment, a quantitative evaluation of the effect of agents capable of blocking the production of detergent resistant matrix material can be made.
(§6) In the present experiment, treatment with the detergent was shown not to affect the biofilm in the absence of released alginate lyase.

[4] = test system: P. aeruginosa PAO-JP2 biofilm; assay: Biofilm architecture recovery in double mutant (microscopy); assay type: cell-based, Pseudomonas aeruginosa; details: double mutant cultured with 10 μM OdDHL in fresh medium
Description: The most unequivocal experimental design, to determine the role of HSL signal molecules on the formation of biofilms by cells of P. aeruginosa, was to use direct microscopic methods to monitor biofilm formation by cells of HSL negative mutants. For this reason planktonic cells of a wild-type strain (PAO1), and of three mutants incapable of synthesizing specific HSLs, were introduced into flow cells, and adhesion and biofilm formation were monitored by means of confocal scanning laser microscopy (CSLM). Using these techniques, it is possible to monitor the development of live biofilms of the strains of interest.
as §2, with “reservoir. Medium from the influent reservoir was pumped through silicone tubing via a Masterflex pump to an aeration flask sparged with a filtered air source.” for “reservoir.”
as §3

algC promoter = assay: Alginate promoter reporter activity (beta-galactosidase), algC; assay type: cell-based, P. aeruginosa strain 8830; details: batch culture 48 hours, 10 uM OdDHL or 20 uM BHL
Experimental: (§7) FIGS. 3a and 3b are alginate promoter studies which show the activity of the alginate promoters algC, and algD. Cultures of P. aeruginosa strain 8830 were grown for 48 hours in batch culture flasks containing EPRI medium. Test flasks were amended by either 10 uM OdDHL (PAI), 20 uM BHL (butyryl-L-homoserine lactone) or both (PAI+BHL). Following incubation, cells were harvested and promoter activity was measured as specific activity of the beta-galactosidase reporter enzyme as normalized to cell protein.
(§8) 4. […] Alginate is a common matrix material in biofilms, and is not exclusive to P. aeruginosa. The sensitivity of P. aeruginosa to HSL activity provides a rapid assay for HSLs that is sensitive and quantitative. The responsiveness of the specific biofilm genes algC and algD to HSL activity allows assays to be performed in liquid or on semi solid medium. This provides the opportunity to perform rapid screening of test molecules for their effect on alginate production.

algD promoter = assay: Alginate promoter reporter activity (beta-galactosidase), algD; assay type: cell-based, P. aeruginosa strain 8830; details: batch culture 48 hours, 10 uM OdDHL or 20 uM BHL
Experimental: as §7, §8

[5] = test system: P. aeruginosa PDO100 biofilm; assay: Biofilm dispersion by BHL in rhlI knockout; assay type: cell-based, Pseudomonas aeruginosa
Experimental: This hypothesis was investigated by growing biofilms of P. aeruginosa PDOlOO and adding BHL to the influent medium at a concentration of 20 μM after 7 days growth. […] When P. aeruginosa PDOIOO was grown in the absence of BHL, medium flow was turned off after 7 days. Following cessation of flow, no dispersion of cell clusters was observed over the duration of the observation period of 96 hours.

[6] = test system: P. aeruginosa PAO1 wild-type biofilm; assay: Biofilm cell cluster average thickness, wild type; assay type: cell-based, Pseudomonas aeruginosa; details: 10 uM in growing PAO1 biofilm, 10 days incubation
Experimental: as §1
Continuous culture studies. […]
as §3
An analog of OdDHL, N-(2,2-difluorodecanoyl)-L-homoserine lactone was dissolved in 25% ethanol, 75% water by volume and added at a final concentration of 10 uM to growing biofilm cultures of P. aeruginosa PAO1 wild-type. Following 10 days incubation, the biofilm was analyzed for cell to cell distances, cell cluster thickness and response to treatment with 0.2% SDS. […]

[7] = test system: P. aeruginosa PAO1 wild-type biofilm; assay: Average cell to cell distance in biofilm, wild type; assay type: cell-based, Pseudomonas aeruginosa; details: 10 uM in growing PAO1 biofilm, 10 days incubation
Experimental: as §4
An analog of OdDHL, N-(2,2-difluorodecanoyl)-L-homoserine lactone was dissolved in 25% ethanol, 75% water by volume and added at a final concentration of 10 uM to growing biofilm cultures of P. aeruginosa PAO1 wild-type. Following 10 days incubation, the biofilm was analyzed for cell to cell distances, cell cluster thickness and response to treatment with 0.2% SDS. […] Finally, when treated with 0.2% SDS by weight, the treated biofilm was disrupted and dispersed within 30 minutes (FIGS. 5a to 5f).

[8] = test system: P. aeruginosa PAO1 biofilm cell clusters; assay: Effect of detergent (0.2% SDS) on biofilm dispersion, wild type; assay type: cell-based, Pseudomonas aeruginosa
Experimental: SDS on wild-type P. aeruginosa PAO1. The bacteria were grown in EPRI medium in continuous culture for 10 days (a,d). Following the incubation period, 0.2% SDS was added to the reactor and flow was halted for 30 minutes (b,e). Following incubation with SDS, flow was reinitiated (c,f).
as §5, §6
Following 10 days incubation, the biofilm was analyzed for cell to cell distances, cell cluster thickness and response to treatment with 0.2% SDS. […] Finally, when treated with 0.2% SDS by weight, the treated biofilm was disrupted and dispersed within 30 minutes (FIGS. 5a to 5f).

[9] = test system: P. aeruginosa PAO-JP2 biofilm cell clusters; assay: Effect of detergent (0.2% SDS) on biofilm dispersion, double mutant; assay type: cell-based, Pseudomonas aeruginosa
Description: as §6

CCCCCCCCCC(=O)CC(=O)N[C@H]1CCOC1=O [OdDHL, N-(3-oxododecanoyl)-L-homoserine lactone]
average cell cluster thickness [1]: 100.1 um | average nearest neighbor distance [2]: over 9 um | dispersion of cell clusters by 0.2% SDS ([3]; PAO-JP1 grown in the presence of 10 μM OdDHL): did not disperse bacteria in the cell clusters | biofilm architecture phenotype [4]: recovery of the intermediary phenotype | algC promoter response (algC promoter): sensitive | algD promoter response (algD promoter): sensitive

CCCC(=O)N[C@H]1CCOC1=O [BHL, N-butyryl-L-homoserine lactone]
effect on biofilm with medium flow on ([5]; 20 μM BHL in influent medium after 7 days growth, 24 hours): no observable effect | detachment after medium flow shut off ([5]; 20 μM BHL, flow off for 16 hours, detachment continued for three hours): significant detachment | algC promoter response (algC promoter): sensitive | algD promoter response (algD promoter): sensitive

CCCCCCCCC(F)(F)C(=O)N[C@H]1CCOC1=O [N-(2,2-difluorodecanoyl)-L-homoserine lactone]
cell cluster average thickness [6]: under 20 um | average cell to cell distance [7]: less than 4 um | time to disruption and dispersion on treatment with 0.2% SDS ([8]; PAO1 biofilm grown 10 days with 10 uM blocking agent): ≤ 30 min | cell cluster dispersion after 0.2% SDS and reinitiation of flow ([8]; PAO1 cultured 10 days in presence of 20 uM OdDHL analog, SDS 30 minutes without flow): disperses completely

CCCCCCCCCCCCOS(=O)(=O)[O-].[Na+] [SDS, sodium dodecyl sulfate]
effect of SDS on cell cluster integrity/dispersion ([8]; 0.2% SDS, untreated wild-type PAO1, sulfate): no effect; also recorded: no dispersion or release of bacteria | dispersion of cell clusters by SDS ([3]; 0.2% SDS, PAO-JP1 without added HSL): disperse completely | time to complete disruption of cell clusters by SDS ([3]; 0.2% SDS, cell clusters formed in the absence of alginate (FIGS. 2a-2d)): under 30 minutes | dispersion of cell clusters by SDS [9]: disperse completely
